Test results from US12351574B2, “Selective ligands for modulation of GIRK channels” (Northeastern University, priority 2018, dated 2025).

Tests used:
[1] = test system: right atrium of isolated Langendorff-perfused mouse heart; assay: optical mapping of atrial action potential duration in isolated Langendorff-perfused mouse heart; conditions: for atrial optical action potential duration 70% repolarization (APD70), quantification: 2.4 μM, 10 Hz stimulation, FIGS. 23A-23B, controls 23.93 (ML297) and 23.1 (GAT1508); for average APD70 of the map of the stimulated right atrium: 10 minutes after 2.4 μM, 10 Hz, FIG. 22, controls 23.9 (ML297) and 21.8 (GAT1508)
Protocol: Optical mapping studies in isolated hearts: Isolated hearts of C57BL/6 mice, four to six months of age, were retrogradely perfused with Tyrode's solution in the Langendorff mode. The preparations were maintained at 37° C., and stained with a bolus of a voltage sensitive dye (0.25 ml, 10 μM Di-4-ANEPPS, Molecular Probes) and imaged with a CCD camera (RedShirt Imaging), 80×80 pixels, 85 μm per pixel, and 1000 frames per second. […] A bipolar, silver tip stimulation electrode was used to pace the right atrium (2.5 5 ms pulses, 2× diastolic threshold) at 10 Hz using an AD Instrument stimulation platform. ML297 or GAT1508 at 2.4 μM were introduced into the perfusate. The action potential duration at 70% repolarization (APD70), was quantified as the inventors have done extensively.

GIRK1-S65Y with GIRK4 = biological target: T1, GIRK1-S65Y with GIRK4 (Homo sapiens, UniProt P48544+P48549, S65Y); assay: 5-ptaseOCRL current inhibition, GIRK1/4 channels containing GIRK1-S65Y subunits; type: cell-based
T1 construct: expressed in transfected cells; host or cells: HEK293-T cells
T1 sequence (P48549 1-501 S65Y): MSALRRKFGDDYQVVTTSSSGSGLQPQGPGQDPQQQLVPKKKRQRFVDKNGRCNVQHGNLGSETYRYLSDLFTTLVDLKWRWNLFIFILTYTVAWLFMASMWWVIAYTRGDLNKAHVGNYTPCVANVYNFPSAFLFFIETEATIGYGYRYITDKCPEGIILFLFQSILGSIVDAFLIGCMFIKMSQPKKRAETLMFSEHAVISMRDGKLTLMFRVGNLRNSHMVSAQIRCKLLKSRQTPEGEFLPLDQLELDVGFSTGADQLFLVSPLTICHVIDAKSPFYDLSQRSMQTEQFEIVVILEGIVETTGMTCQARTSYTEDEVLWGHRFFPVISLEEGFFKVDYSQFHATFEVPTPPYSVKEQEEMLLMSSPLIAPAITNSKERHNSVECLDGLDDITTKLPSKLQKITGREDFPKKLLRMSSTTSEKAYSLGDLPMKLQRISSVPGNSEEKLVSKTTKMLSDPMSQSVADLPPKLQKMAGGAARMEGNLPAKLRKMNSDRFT
T1 sequence (P48544 1-419): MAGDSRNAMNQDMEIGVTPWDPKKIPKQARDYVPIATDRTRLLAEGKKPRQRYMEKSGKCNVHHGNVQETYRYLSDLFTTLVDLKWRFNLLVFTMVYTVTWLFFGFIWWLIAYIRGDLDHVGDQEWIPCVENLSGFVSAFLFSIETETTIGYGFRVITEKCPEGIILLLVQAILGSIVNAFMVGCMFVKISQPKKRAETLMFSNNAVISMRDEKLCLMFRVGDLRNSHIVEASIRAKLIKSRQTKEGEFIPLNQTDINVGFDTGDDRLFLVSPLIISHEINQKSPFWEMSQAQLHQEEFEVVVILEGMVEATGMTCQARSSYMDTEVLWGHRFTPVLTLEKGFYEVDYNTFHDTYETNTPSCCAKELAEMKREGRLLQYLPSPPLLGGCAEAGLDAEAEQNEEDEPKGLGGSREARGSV
Source text: To identify changes in specific channel residue interactions with PIP2 upon ligand binding, the inventors carried out Principal Component Analysis (PCA) in the presence and absence of ML297 and GAT1508. The PCA analysis implicated changes in the slide (or interfacial) helix interactions with PIP2 upon ligand binding. Polar interactions could be formed between GIRK2^FD(Y76) and GIRK4^FD(Y71) with the P(4,5) of PIP2 when ML297 was bound to the same subunit (FIG. 39 top, FIG. 40). In contrast, when GAT1508 was bound this interaction was retained by GIRK2^FD but not GIRK4^FD (FIG. 39 bottom, FIG. 40). The corresponding GIRK1(S65) residue (FIG. 41, highlighted with vertical rectangle) could be serving the same role in stabilizing the phosphoinositol headgroup for interactions with non-ligand binding subunits. As polar residues, both Ser and Tyr could form H-bond interactions with PIP2. […]
Patch-clamp recording: Whole-cell currents were recorded with an Axopatch 200B amplifier (Molecular Devices) controlled via a USB-interface (National Instruments) using WinWCP software (University of Strathclyde). […] The barium-sensitive component of the current, observed when cells were perfused with the high-K^+ buffer, was analyzed and was determined by perfusing 5 mM BaCl2 in the high-K^+ buffer at the end of each experiment. […]

Row | atrial optical action potential duration 70% repolarization (APD70), quantification [1] [ms] | average APD70 of the map of the stimulated right atrium [1] [ms] | τ of current-inhibition (in words) (GIRK1-S65Y with GIRK4) | Compound
1 | 23.57 | 20.3 | not statistically increased | Cc1cc(NC(=O)Nc2ccc(Br)s2)n(-c2ccccc2)n1 [GAT1508, 1-(5-bromothiophen-2-yl)-3-(3-methyl-1-phenyl-1H-pyrazol-5-yl)urea]
2 | 16.53 | 16 | not statistically increased | Cc1cc(NC(=O)Nc2ccc(F)c(F)c2)n(-c2ccccc2)n1 [ML297, reference compound]
